Data published in the NIST ThermoML archive (doi:10.1016/j.jct.2004.04.004).

Assay: xn = mol fraction of the nth substance listed
Conditions: 101.3 kPa, Liquid

Cc1ccccc1C [1,2-dimethylbenzene] + C[S+](C)[O-]
Conditions	mass density [kg/m3]
293.15 K, x1 = 0.0858	1070.35
293.15 K, x1 = 0.1359	1054.5
293.15 K, x1 = 0.1957	1036.82
293.15 K, x1 = 0.2589	1019.38
293.15 K, x1 = 0.3283	1001.63
293.15 K, x1 = 0.3947	985.85
293.15 K, x1 = 0.4732	968.58
293.15 K, x1 = 0.5482	953.27
293.15 K, x1 = 0.6132	940.87
293.15 K, x1 = 0.6648	931.53
293.15 K, x1 = 0.7329	919.84
293.15 K, x1 = 0.8012	908.78
293.15 K, x1 = 0.8732	897.78
293.15 K, x1 = 0.9198	891.02
303.15 K, x1 = 0.0923	1059.85
303.15 K, x1 = 0.153	1040.84
303.15 K, x1 = 0.229	1018.94
303.15 K, x1 = 0.3013	999.82
303.15 K, x1 = 0.3539	986.84
303.15 K, x1 = 0.439	967.38
303.15 K, x1 = 0.4938	955.72
303.15 K, x1 = 0.5539	943.64
303.15 K, x1 = 0.615	932.03
303.15 K, x1 = 0.6849	919.56
303.15 K, x1 = 0.7537	907.99
303.15 K, x1 = 0.8327	895.54
303.15 K, x1 = 0.9123	883.82
313.15 K, x1 = 0.0794	1055.53
313.15 K, x1 = 0.1246	1040.99
313.15 K, x1 = 0.1936	1020.26
313.15 K, x1 = 0.2638	1000.86
313.15 K, x1 = 0.3248	985.24
313.15 K, x1 = 0.4058	966.09
313.15 K, x1 = 0.5732	931.27
313.15 K, x1 = 0.649	917.29
313.15 K, x1 = 0.7044	907.66
313.15 K, x1 = 0.7724	896.49
313.15 K, x1 = 0.8355	886.69
313.15 K, x1 = 0.8943	878.03
313.15 K, x1 = 0.9234	873.9
323.15 K, x1 = 0.0833	1045.74
323.15 K, x1 = 0.1489	1024.89
323.15 K, x1 = 0.1948	1011.29
323.15 K, x1 = 0.2587	993.57
323.15 K, x1 = 0.3278	975.84
323.15 K, x1 = 0.4039	957.84
323.15 K, x1 = 0.4632	944.82
323.15 K, x1 = 0.5399	929.1
323.15 K, x1 = 0.6012	917.37
323.15 K, x1 = 0.664	906.05
323.15 K, x1 = 0.7576	890.35
323.15 K, x1 = 0.8148	881.37
323.15 K, x1 = 0.8833	871.21
323.15 K, x1 = 0.9347	863.97
333.15 K, x1 = 0.0795	1038.47
333.15 K, x1 = 0.1399	1019.08
333.15 K, x1 = 0.2048	999.81
333.15 K, x1 = 0.2598	984.62
333.15 K, x1 = 0.3189	969.38
333.15 K, x1 = 0.3832	953.94
333.15 K, x1 = 0.4539	938.16
333.15 K, x1 = 0.5138	925.7
333.15 K, x1 = 0.5822	912.36
333.15 K, x1 = 0.6427	901.28
333.15 K, x1 = 0.7038	890.71
333.15 K, x1 = 0.7638	880.89
333.15 K, x1 = 0.8247	871.45
333.15 K, x1 = 0.9138	858.53
343.15 K, x1 = 0.0698	1033.25
343.15 K, x1 = 0.1587	1004.79
343.15 K, x1 = 0.2184	987.38
343.15 K, x1 = 0.275	972.02
343.15 K, x1 = 0.3576	951.35
343.15 K, x1 = 0.4247	935.94
343.15 K, x1 = 0.4933	921.29
343.15 K, x1 = 0.5539	909.2
343.15 K, x1 = 0.6349	894.13
343.15 K, x1 = 0.7038	882.21
343.15 K, x1 = 0.7971	867.23
343.15 K, x1 = 0.8621	857.5
343.15 K, x1 = 0.9324	847.62
353.15 K, x1 = 0.0431	1034
353.15 K, x1 = 0.1383	1002.49
353.15 K, x1 = 0.2043	982.8
353.15 K, x1 = 0.2748	963.47
353.15 K, x1 = 0.3534	943.75
353.15 K, x1 = 0.4148	929.55
353.15 K, x1 = 0.4829	914.87
353.15 K, x1 = 0.5457	902.24
353.15 K, x1 = 0.6198	888.33
353.15 K, x1 = 0.6831	877.21
353.15 K, x1 = 0.7598	864.61
353.15 K, x1 = 0.8244	854.67
353.15 K, x1 = 0.8846	845.91
353.15 K, x1 = 0.9423	837.96

Cc1cccc(C)c1 [1,3-dimethylbenzene] + C[S+](C)[O-]
Conditions	mass density [kg/m3]
293.15 K, x1 = 0.0679	1074.3
293.15 K, x1 = 0.1489	1046.5
293.15 K, x1 = 0.2044	1028.97
293.15 K, x1 = 0.2613	1012.13
293.15 K, x1 = 0.3487	988.35
293.15 K, x1 = 0.3975	976.03
293.15 K, x1 = 0.4578	961.7
293.15 K, x1 = 0.5244	946.87
293.15 K, x1 = 0.5896	933.28
293.15 K, x1 = 0.6597	919.61
293.15 K, x1 = 0.7393	905.13
293.15 K, x1 = 0.8218	891.15
293.15 K, x1 = 0.8835	881.33
293.15 K, x1 = 0.9412	872.62
303.15 K, x1 = 0.0735	1063.89
303.15 K, x1 = 0.1579	1035.01
303.15 K, x1 = 0.2387	1010.01
303.15 K, x1 = 0.3087	990.22
303.15 K, x1 = 0.3754	972.78
303.15 K, x1 = 0.4147	963.09
303.15 K, x1 = 0.4892	945.8
303.15 K, x1 = 0.5539	931.86
303.15 K, x1 = 0.6209	918.33
303.15 K, x1 = 0.6902	905.23
303.15 K, x1 = 0.7532	894.02
303.15 K, x1 = 0.8149	883.65
303.15 K, x1 = 0.8687	875.05
303.15 K, x1 = 0.9373	864.64
313.15 K, x1 = 0.0854	1051.04
313.15 K, x1 = 0.1527	1028.01
313.15 K, x1 = 0.2357	1002.14
313.15 K, x1 = 0.2978	984.4
313.15 K, x1 = 0.3576	968.48
313.15 K, x1 = 0.4077	955.97
313.15 K, x1 = 0.4676	941.86
313.15 K, x1 = 0.5239	929.42
313.15 K, x1 = 0.5823	917.24
313.15 K, x1 = 0.6521	903.59
313.15 K, x1 = 0.7389	887.82
313.15 K, x1 = 0.7912	878.91
313.15 K, x1 = 0.8513	869.17
313.15 K, x1 = 0.9327	856.77
323.15 K, x1 = 0.0746	1046.35
323.15 K, x1 = 0.1647	1015.41
323.15 K, x1 = 0.2138	999.97
323.15 K, x1 = 0.2847	979.25
323.15 K, x1 = 0.3579	959.6
323.15 K, x1 = 0.4135	945.75
323.15 K, x1 = 0.4724	931.98
323.15 K, x1 = 0.5249	920.42
323.15 K, x1 = 0.6038	904.17
323.15 K, x1 = 0.6739	890.78
323.15 K, x1 = 0.7598	875.54
323.15 K, x1 = 0.8133	866.63
323.15 K, x1 = 0.8732	857.15
323.15 K, x1 = 0.9239	849.51
333.15 K, x1 = 0.0673	1040.47
333.15 K, x1 = 0.1568	1009.3
333.15 K, x1 = 0.2249	987.86
333.15 K, x1 = 0.2935	968.02
333.15 K, x1 = 0.3687	948.04
333.15 K, x1 = 0.4312	932.71
333.15 K, x1 = 0.4921	918.76
333.15 K, x1 = 0.5638	903.47
333.15 K, x1 = 0.6304	890.23
333.15 K, x1 = 0.693	878.57
333.15 K, x1 = 0.7563	867.46
333.15 K, x1 = 0.8137	857.93
333.15 K, x1 = 0.8846	846.82
333.15 K, x1 = 0.9355	839.26
343.15 K, x1 = 0.0647	1032.84
343.15 K, x1 = 0.1491	1003.11
343.15 K, x1 = 0.2139	982.42
343.15 K, x1 = 0.2749	964.42
343.15 K, x1 = 0.3588	941.76
343.15 K, x1 = 0.4395	921.95
343.15 K, x1 = 0.5023	907.73
343.15 K, x1 = 0.5539	896.74
343.15 K, x1 = 0.6135	884.76
343.15 K, x1 = 0.675	873.12
343.15 K, x1 = 0.7523	859.44
343.15 K, x1 = 0.8132	849.34
343.15 K, x1 = 0.8643	841.29
343.15 K, x1 = 0.9247	832.25
353.15 K, x1 = 0.0734	1020.97
353.15 K, x1 = 0.1359	998.8
353.15 K, x1 = 0.1844	982.84
353.15 K, x1 = 0.2258	970
353.15 K, x1 = 0.2844	952.95
353.15 K, x1 = 0.3535	934.34
353.15 K, x1 = 0.4241	916.83
353.15 K, x1 = 0.4798	903.97
353.15 K, x1 = 0.5323	892.53
353.15 K, x1 = 0.6042	877.86
353.15 K, x1 = 0.6724	864.89
353.15 K, x1 = 0.7539	850.47
353.15 K, x1 = 0.8375	836.8
353.15 K, x1 = 0.9144	825.15
